Data reported in patent US10183912B2, “HDMX inhibitors and their use for cancer treatment” (priority 2014, dated 2019).
Like-named read-outs stand apart in the source and are kept apart here.

Legend:
[1] = system: OCI cell line; experiment: IC50 / cell killing activity on OCI cell line; assay type: cell-based
[2] = target: T1, HDMX (Homo sapiens, UniProt O15151); experiment: Spectral (absorbance) studies after size exclusion chromatography with HDMX; assay type: binding; conditions: absorbance pattern after removal of free compound
T1 sequence (O15151 1-490): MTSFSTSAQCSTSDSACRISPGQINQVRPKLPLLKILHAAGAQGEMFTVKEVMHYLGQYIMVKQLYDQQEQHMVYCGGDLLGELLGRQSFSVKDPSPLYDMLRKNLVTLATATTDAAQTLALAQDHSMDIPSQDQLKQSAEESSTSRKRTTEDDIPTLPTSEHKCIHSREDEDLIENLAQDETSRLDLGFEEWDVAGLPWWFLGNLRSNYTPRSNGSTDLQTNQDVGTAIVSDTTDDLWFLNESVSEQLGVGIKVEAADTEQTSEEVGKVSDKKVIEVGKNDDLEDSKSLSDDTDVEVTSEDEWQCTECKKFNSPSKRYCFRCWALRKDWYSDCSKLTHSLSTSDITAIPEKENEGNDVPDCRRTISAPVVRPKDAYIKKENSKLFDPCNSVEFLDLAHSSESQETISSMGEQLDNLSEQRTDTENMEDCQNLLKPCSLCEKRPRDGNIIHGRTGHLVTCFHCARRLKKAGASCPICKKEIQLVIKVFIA

[3] = target: T1, HDMX; experiment: Surface plasmon resonance binding to immobilized recombinant HDMX; conditions: doses up to 12.5 μM
[4] = system: primary human AML cells; experiment: Survival of NSG mice injected with primary human AML cells; assay type: in vivo
[5] = system: MCF7 cells; conditions: CTX1 3 μM
[6] = system: GST-FXR; assay type: binding; conditions: immunoprecipitation / streptavidin pull-down
[7] = system: HCT116 p53-wild type cells; experiment: Annexin-V staining for apoptosis, HCT116 p53-wild type cells; assay type: cell-based; conditions: combination of CTX1 (3 μM) and nutlin-3 (5 μM), 72 hr
[8] = target: HDM2/p53 (Homo sapiens, UniProt Q00987); experiment: ELISA of recombinant HDM2/p53 interaction; assay type: biochemical
[9] = system: HCT116 p53-null cells; experiment: Annexin-V staining for apoptosis, HCT116 p53-null cells; assay type: cell-based; conditions: combination of CTX1 (3 μM) and nutlin-3 (5 μM), 72 hr
[10] = system: IMR90 cells; experiment: Cell death (trypan blue) in IMR90 fibroblast model with HDMX, HDM2 or shp53; assay type: cell-based; conditions: 72 hr
[11] = system: HCT116 p53-wild-type cells; experiment: Cell cycle analysis by PI staining, HCT116 p53-wild-type cells; assay type: cell-based; conditions: after 24 hr of treatment with CTX1 (2 μM); decrease from 20%
[12] = system: HCT116 p53-null cells; experiment: Cell cycle analysis by PI staining, HCT116 p53-null cells; assay type: cell-based; conditions: after 24 hr of treatment with CTX1 (2 μM); reduction from 25%
[13] = target: T2, HDMX/p53 (Homo sapiens, UniProt O15151); experiment: ELISA of recombinant HDMX/p53 interaction; assay type: biochemical
T2 sequence (O15151 1-490): T1 sequence (O15151 1-490)

[14] = target: T3, P53-HDMX (Homo sapiens, UniProt O15151); experiment: Co-immunoprecipitation of P53 and HDMX; assay type: biochemical; conditions: compared to DMSO and Nutlin
T3 sequence (O15151 1-490): T1 sequence (O15151 1-490)

[15] = system: OCI-AML3 (OCI) cells overexpressing HDMX; experiment: Cell killing of OCI cells overexpressing HDMX versus parental cells; assay type: cell-based; conditions: 72 hr trypan blue
[16] = target: T4, GST-HDMX (Homo sapiens, UniProt O15151); conditions: immunoprecipitation / streptavidin pull-down
T4 sequence (O15151 1-490): T1 sequence (O15151 1-490)

HDM2/p53, sequence (Q00987 whole entry): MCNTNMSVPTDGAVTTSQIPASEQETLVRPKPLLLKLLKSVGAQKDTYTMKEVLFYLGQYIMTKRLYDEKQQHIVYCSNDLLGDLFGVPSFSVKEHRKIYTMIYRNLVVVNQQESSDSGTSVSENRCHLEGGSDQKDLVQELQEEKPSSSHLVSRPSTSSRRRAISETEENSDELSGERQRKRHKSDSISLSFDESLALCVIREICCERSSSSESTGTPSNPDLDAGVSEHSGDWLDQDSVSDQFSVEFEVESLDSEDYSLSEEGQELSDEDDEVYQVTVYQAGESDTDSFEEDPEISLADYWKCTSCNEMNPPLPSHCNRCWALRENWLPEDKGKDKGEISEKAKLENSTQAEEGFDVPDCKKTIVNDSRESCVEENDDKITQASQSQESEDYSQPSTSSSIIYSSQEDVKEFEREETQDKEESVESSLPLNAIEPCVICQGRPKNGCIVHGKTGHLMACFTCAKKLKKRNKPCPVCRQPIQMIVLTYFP

Q: With `Nc1ccc(Nc2c3ccccc3nc3cc(N)ccc23)cc1` [INVA3Z-32-2] as the compound, how does the IC50 ([1]; OCI cell line, read-out: IC 50) read?
A: The IC50 was 4.7 µM.

Q: `N#Cc1c2ccc([N+](=O)[O-])cc2nc2cc([N+](=O)[O-])ccc12` [INVA3Z-6-1] was tested. Which IC50 [1] did it give?
A: The IC50 was 14.1 µM.

Q: For `CC(=O)Nc1ccc2c(Nc3ccc(N)cc3)c3ccccc3nc2c1` [INVA3Z-40-2], which IC50 ([1]; OCI cell line, read-out: IC 50) is on record?
A: The IC50 was 13.9 µM.

Q: Which IC50 ([1]; read-out: IC 50) does the source give for `Nc1ccc(Nc2c3ccc([N+](=O)[O-])cc3nc3cc([N+](=O)[O-])ccc23)cc1` [INVA3Z-42-1] here?
A: The IC50 was 0.13 µM.

Q: `CC(=O)Nc1cccc(Nc2c3ccccc3nc3ccccc23)c1` [INVA3Z-39-1] was tested. Which IC50 ([1]; OCI cell line, read-out: IC 50) did it give?
A: The IC50 was 12.1 µM.

Q: `Nc1ccc2cc3ccc(N)c(-c4ccccc4)c3nc2c1-c1ccccc1` [INVA3Z-52-2] was tested. Which IC50 ([1]; OCI cell line, read-out: IC 50) did it give?
A: The IC50 was 3.4 µM.

Q: For `O=C(CCCCC1SCC2NC(=O)NC21)Nc1ccc(Nc2c3ccc([N+](=O)[O-])cc3nc3cc([N+](=O)[O-])ccc23)cc1` (centres unmarked) [INVA3Z-48-2], which IC50 [1] is on record?
A: Its IC50 is 8.2 µM.

Q: What does the source list for `Nc1c2ccccc2nc2ccccc12` [9-AA, 9-aminoacridine]?
A: binding to HDMX by spectral studies [2]: not observed; binding to HDMX using SPR [3]: did not demonstrate any binding

Q: How did the IC50 ([1]; OCI cell line, read-out: IC 50) turn out when `[N-]=[N+]=NCCCS(=O)(=O)Nc1ccc(Nc2c3ccccc3nc3ccccc23)cc1` [INVA3Z-13-1] was run?
A: Its IC50 is 9.9 µM.

Q: `CC(=O)Nc1ccc(Nc2c3ccccc3nc3ccccc23)cc1` [INVA3Z-36-1] was tested. Which IC50 ([1]; OCI cell line, read-out: IC 50) did it give?
A: The IC50 was 4.9 µM.

Q: Which IC50 ([1]; OCI cell line, read-out: IC 50) does the source give for `N#Cc1ccc(Nc2c3ccccc3nc3ccccc23)cc1` [INVA3Z-29-2] here?
A: Its IC50 is over 8 µM.

Q: With `Nc1ccc2cc3ccc(N)c(-c4ccccc4)c3nc2c1I` [INVA3Z-52-3] as the compound, how does the IC50 ([1]; OCI cell line, read-out: IC 50) read?
A: The IC50 was 7.8 µM.

Q: How did the IC50 ([1]; OCI cell line, read-out: IC 50) turn out when `Nc1ccc(Nc2c3ccccc3[n+]([O-])c3ccccc23)cc1` [INVA3Z-41-2] was run?
A: Its IC50 is 14.3 µM.

Q: With `Nc1ccn([C@@H]2O[C@H](CO)[C@@H](O)[C@@H]2O)c(=O)n1` [cytarabine, reference compound] as the compound, how does the “efficacy in this model system” value ([4]; standard AML therapeutic) read?
A: Its value is “does not demonstrate efficacy”.

Q: How did the IC50 ([1]; OCI cell line, read-out: IC 50) turn out when `N#Cc1c2ccccc2nc2ccccc12` [INVA3Z-6-3] was run?
A: Its IC50 is 13.4 µM.

Q: How did the IC50 ([1]; OCI cell line, read-out: IC 50) turn out when `O=[N+]([O-])c1ccc2c(Cl)c3ccccc3nc2c1` [INVA3Z-28-1] was run?
A: The IC50 was 7.8 µM.

Q: For `Cc1ccc2nc3cc([N+](=O)[O-])ccc3c(Nc3ccc(N)cc3)c2c1[N+](=O)[O-]` [INVA3Z-65-2], which IC50 [1] is on record?
A: Its IC50 is 11.5 µM.

Q: How did the p53 induction [5] turn out when `N#Cc1c2ccc(N)cc2nc2cc(N)ccc12` [CTX1] was run?
A: Its p53 induction is “induces p53 rapidly”.

Q: And the survival time ([4]; CTX1 (30 mg/kg i.p.) in combination with nutlin-3 (200 mg/kg p.o.))?
A: The survival time was “significantly increased survival time”.

Q: And the survival of mice ([4]; single agent, 30 mg/kg i.p.)?
A: The survival of mice was “significantly enhanced the survival”.

Q: And the “direct interaction with GST-FXR” value [6]?
A: The value was “not unrelated proteins such as GST-FXR”.

Q: What about the induction of apoptosis [7] of the same compound?
A: Its induction of apoptosis is “synergistic induction of apoptosis”.

Q: And the “disruption of HDM2/p53 interaction” value [8]?
A: The value was “not HDM2/p53”.

Q: And the induction of apoptosis [9]?
A: Its induction of apoptosis is “not p53-null cells”.

Q: What about the cell death ([10]; HDMX-expressing cells (Vector or HDMX), 1, 2.5 and 5 μM) of the same compound?
A: The cell death was “induced significant p53-dependent cell death”.

Q: What about the cell death ([10]; cells with HDM2 overexpression or p53 knocked down by shRNA) of the same compound?
A: Its cell death is “not cells in which p53 is inactivated by HDM2 overexpression”.

Q: And the S phase [11]?
A: Its S phase is 4%.

Q: And the S phase [12]?
A: The S phase was 15%.

Q: Which IC50 [1] does the source give for `Cc1c([N+](=O)[O-])ccc2c(Cl)c3ccc([N+](=O)[O-])cc3nc12` [INVA3Z-63-1] here?
A: Its IC50 is over 15 µM.

Q: `Nc1ccc(Nc2c3ccccc3nc3ccccc23)c(N)c1` [INVA3Z-61-2] was tested. Which IC50 ([1]; OCI cell line, read-out: IC 50) did it give?
A: The IC50 was 4.3 µM.

Q: `[N-]=[N+]=Nc1c2ccccc2nc2ccccc12` [INVA3Z-55-1] was tested. Which IC50 ([1]; OCI cell line, read-out: IC 50) did it give?
A: The IC50 was 3.2 µM.

Q: For `CC(=O)Nc1ccc(Nc2c3ccc([N+](=O)[O-])cc3nc3cc([N+](=O)[O-])ccc23)cc1` [INVA3Z-50-2], which “disruption of HDMX/p53 interaction” value [13] is on record?
A: The value was “Identical results were obtained”.

Q: And the IC50 [1]?
A: Its IC50 is 1.4 µM.

Q: And the “disruption of P53-HDMX protein interaction” value [14]?
A: Its value is “disrupts”.

Q: And the “disruption of HDM2/p53 interaction” value [8]?
A: Its value is “Identical results were obtained”.

Q: How did the “sensitivity to cell killing versus parental cells” value [15] turn out when `COc1ccc(C2=N[C@@H](c3ccc(Cl)cc3)[C@@H](c3ccc(Cl)cc3)N2C(=O)N2CCNC(=O)C2)c(OC(C)C)c1` [nutlin-3] was run?
A: Its value is “reduced activity”.

Q: How did the IC50 ([1]; OCI cell line, read-out: IC 50) turn out when `Nc1cccc(Nc2c3ccccc3nc3ccccc23)c1` [INVA3Z-38-1] was run?
A: Its IC50 is 11.8 µM.

Q: `ClCCN(CCCl)c1c2ccccc2nc2ccccc12` [INVA3Z-29-1] was tested. Which IC50 [1] did it give?
A: Its IC50 is over 8 µM.

Q: How did the IC50 ([1]; OCI cell line, read-out: IC 50) turn out when `O=S(=O)(CCCOCc1ccccc1)Nc1ccc(Nc2c3ccccc3nc3ccccc23)cc1` [INVA3Z-10-1] was run?
A: Its IC50 is 9.8 µM.

Q: For `O=C(CCl)Nc1c2ccccc2nc2ccccc12` [INVA3Z-17-2], which IC50 ([1]; OCI cell line, read-out: IC 50) is on record?
A: Its IC50 is 13.6 µM.

Q: Which IC50 [1] does the source give for `Nc1ccc(Nc2c3ccc([N+](=O)[O-])cc3nc3cc([N+](=O)[O-])ccc23)cc1N` [INVA3Z-66-1] here?
A: Its IC50 is over 15 µM.

Q: How did the IC50 ([1]; read-out: IC 50) turn out when `O=C(CCCCC1SCC2NC(=O)NC21)Nc1ccc(Nc2c3ccccc3nc3ccccc23)cc1` (centres unmarked) [INVA3Z-31-1] was run?
A: The IC50 was 11.9 µM.

Q: `Nc1ccc2cc3ccc(N)c(I)c3nc2c1` [INVA3Z-46-2] was tested. Which IC50 ([1]; OCI cell line, read-out: IC 50) did it give?
A: Its IC50 is 7.9 µM.

Q: `Cc1c([N+](=O)[O-])ccc2c(Nc3ccc(N)cc3)c3ccc([N+](=O)[O-])cc3nc12` [INVA3Z-63-2] was tested. Which IC50 [1] did it give?
A: The IC50 was over 15 µM.

Q: With `CC(=O)Nc1ccc2c(Cl)c3ccccc3nc2c1` [INVA3Z-40-1] as the compound, how does the IC50 ([1]; OCI cell line, read-out: IC 50) read?
A: The IC50 was 13.2 µM.

Q: For `[O-][n+]1c2ccccc2c(Cl)c2ccccc21` [INVA3Z-41-1], which IC50 ([1]; OCI cell line, read-out: IC 50) is on record?
A: The IC50 was over 15 µM.

Q: With `O=[N+]([O-])c1ccc2c(Cl)c3cc([N+](=O)[O-])ccc3nc2c1` [INVA3Z-58-1] as the compound, how does the IC50 [1] read?
A: Its IC50 is over 15 µM.

Q: How did the IC50 ([1]; OCI cell line, read-out: IC 50) turn out when `OCCNc1ccc(Nc2c3ccccc3nc3ccccc23)cc1` [INVA3Z-19-1] was run?
A: The IC50 was 5.8 µM.

Q: `Nc1ccc(Nc2c3ccccc3nc3ccccc23)cc1` [INVA3Z-5-2] was tested. Which IC50 ([1]; OCI cell line, read-out: IC 50) did it give?
A: Its IC50 is 4.7 µM.

Q: How did the IC50 [1] turn out when `O=[N+]([O-])c1ccc2c(Cl)c3ccc([N+](=O)[O-])cc3nc2c1` [INVA3Z-1-1] was run?
A: Its IC50 is 13.5 µM.

Q: `Nc1ccc(Nc2c3ccccc3nc3cc([N+](=O)[O-])ccc23)cc1` [INVA3Z-32-1] was tested. Which IC50 ([1]; OCI cell line, read-out: IC 50) did it give?
A: The IC50 was 4.8 µM.

Q: For `O=C(O)CCCC[C@@H]1SC[C@@H]2NC(=O)N[C@@H]21` [Biotin], which “direct interaction with GST-HDMX” value [16] is on record?
A: Its value is “not to bind with HDMX”.
